Assay results as given in patent publication US11912701B2, “Protein kinase inhibitors for promoting liver regeneration or reducing or preventing hepatocyte death” (HEPAREGENIX GMBH, priority 2018, dated 2024).

Tests used:
Type in all cases: biochemical
BRaf = biological target: T1, BRaf (Homo sapiens, UniProt P15056); test: 33PanQinase enzyme assay, BRaf; settings: ratio IC50(BRaf)/IC50(MKK4)
T1 construct: purchased ProQinase GmbH, Freiburg, Germany (33PanQinase Assay Service)
T1 sequence (P15056 whole entry, species assumed): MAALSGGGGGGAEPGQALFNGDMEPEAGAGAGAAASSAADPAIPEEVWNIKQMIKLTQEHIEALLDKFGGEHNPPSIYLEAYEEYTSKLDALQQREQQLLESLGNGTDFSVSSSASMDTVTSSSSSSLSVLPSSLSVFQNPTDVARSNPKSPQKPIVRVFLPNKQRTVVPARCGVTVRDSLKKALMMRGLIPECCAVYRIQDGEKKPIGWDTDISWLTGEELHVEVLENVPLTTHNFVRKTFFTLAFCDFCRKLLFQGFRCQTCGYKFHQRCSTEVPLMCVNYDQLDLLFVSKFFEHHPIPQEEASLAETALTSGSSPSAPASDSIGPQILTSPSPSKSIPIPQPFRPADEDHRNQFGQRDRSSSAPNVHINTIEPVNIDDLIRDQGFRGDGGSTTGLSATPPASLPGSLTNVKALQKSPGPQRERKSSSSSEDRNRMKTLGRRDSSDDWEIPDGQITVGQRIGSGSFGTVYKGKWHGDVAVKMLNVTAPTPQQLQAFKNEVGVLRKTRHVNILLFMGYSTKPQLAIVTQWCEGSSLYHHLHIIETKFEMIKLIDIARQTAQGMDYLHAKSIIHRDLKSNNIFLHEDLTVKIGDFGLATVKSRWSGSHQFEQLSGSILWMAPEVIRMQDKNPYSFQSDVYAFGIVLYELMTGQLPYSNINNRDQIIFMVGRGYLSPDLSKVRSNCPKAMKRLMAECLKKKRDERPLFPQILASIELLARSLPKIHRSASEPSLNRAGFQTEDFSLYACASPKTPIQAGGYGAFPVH
Procedure: (§1) The kinase activities of the compounds of the invention were measured using the 33PanQinase® Assay Service provided by ProQinase GmbH, Freiburg, Germany. Details of the assay conditions are disclosed on the website of ProQinase (https://www.proginase.com/products-services-biochemical-assay-services/kinase-assays). In brief, all kinase assays were performed in 96-well FlashPlates™ from PerkinElmer (Boston, MA, USA) in a 50 μl reaction volume. The reaction cocktail was pipetted in four steps in the following order: • 20 μl of assay buffer (standard buffer) • 5 μl of ATP solution (in H2O) • 5 μl of test compound (in 10% DMSO) • 20 μl enzyme/subtrate mix
(§2) The reaction cocktails were incubated at 30° C. for 60 minutes. The reaction is stopped with 50 μl of 2% (v/v) H3PO4, plates were aspirated and washed two times with 200 μl 0.9% (w/v) NaCl. Incorporation of ^33Pi was determined with a microplate scintillation counter (Microbeta, Wallac).
(§3) All assays were performed with a BeckmanCoulter/SAGIAN™ Core System.
(§4) In case of single concentration assays, the potency of the test compound is expressed as % residual activity. […] The fitting method used was a least-squares fit.
(§5) Selectivity of test compounds against BRaf, JNK1 and MKK7, altogether denominated as off-targets was calculated by the ratio of IC50 (off-target)/IC50 (MKK4) and categorized as follows: […]

JNK1 = JNK1 (Homo sapiens, UniProt P45983); test: 33PanQinase enzyme assay, JNK1; parameters: purchased ProQinase GmbH, Freiburg, Germany (33PanQinase Assay Service); settings: ratio IC50(JNK1)/IC50(MKK4)
Sequence of JNK1 (P45983 whole entry): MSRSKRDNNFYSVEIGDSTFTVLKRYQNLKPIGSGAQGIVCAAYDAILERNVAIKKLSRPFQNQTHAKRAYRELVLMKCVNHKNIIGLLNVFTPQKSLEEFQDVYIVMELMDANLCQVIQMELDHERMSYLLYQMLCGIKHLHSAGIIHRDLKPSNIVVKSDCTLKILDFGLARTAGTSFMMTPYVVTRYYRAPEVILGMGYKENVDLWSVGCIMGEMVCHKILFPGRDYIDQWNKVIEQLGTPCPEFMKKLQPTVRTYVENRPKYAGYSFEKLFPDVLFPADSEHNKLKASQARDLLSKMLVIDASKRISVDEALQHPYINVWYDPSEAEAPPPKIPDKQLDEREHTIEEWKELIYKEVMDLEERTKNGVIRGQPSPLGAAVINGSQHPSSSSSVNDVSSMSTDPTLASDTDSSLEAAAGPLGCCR
Procedure: as §1, §2, §3, §4, §5

MKK7 = biological target: T2, MKK7 (Homo sapiens, UniProt O14733); test: 33PanQinase enzyme assay, MKK7; parameters: purchased ProQinase GmbH, Freiburg, Germany (33PanQinase Assay Service); settings: ratio IC50(MKK7)/IC50(MKK4)
T2 sequence (O14733 1-419): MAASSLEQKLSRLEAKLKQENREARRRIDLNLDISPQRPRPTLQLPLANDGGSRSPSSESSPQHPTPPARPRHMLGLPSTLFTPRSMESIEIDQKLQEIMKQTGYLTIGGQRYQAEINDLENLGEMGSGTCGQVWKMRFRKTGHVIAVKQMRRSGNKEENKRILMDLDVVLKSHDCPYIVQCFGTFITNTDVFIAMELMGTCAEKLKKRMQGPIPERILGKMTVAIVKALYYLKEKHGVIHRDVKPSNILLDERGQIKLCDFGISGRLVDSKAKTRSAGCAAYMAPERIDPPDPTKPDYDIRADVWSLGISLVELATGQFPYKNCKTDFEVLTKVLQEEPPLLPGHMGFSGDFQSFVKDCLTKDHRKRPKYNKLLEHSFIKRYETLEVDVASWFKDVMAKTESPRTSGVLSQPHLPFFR
Procedure: as §1, §2, §3, §4, §5

MKK4 = biological target: T3, MKK4 (Homo sapiens, UniProt P45985); test: 33PanQinase enzyme assay, MKK4; settings: for IC50: assay 'IC50', read-out: Potency MKK4 (IC50)
T3 construct: purchased ProQinase GmbH, Freiburg, Germany (33PanQinase Assay Service)
T3 sequence (P45985 1-399): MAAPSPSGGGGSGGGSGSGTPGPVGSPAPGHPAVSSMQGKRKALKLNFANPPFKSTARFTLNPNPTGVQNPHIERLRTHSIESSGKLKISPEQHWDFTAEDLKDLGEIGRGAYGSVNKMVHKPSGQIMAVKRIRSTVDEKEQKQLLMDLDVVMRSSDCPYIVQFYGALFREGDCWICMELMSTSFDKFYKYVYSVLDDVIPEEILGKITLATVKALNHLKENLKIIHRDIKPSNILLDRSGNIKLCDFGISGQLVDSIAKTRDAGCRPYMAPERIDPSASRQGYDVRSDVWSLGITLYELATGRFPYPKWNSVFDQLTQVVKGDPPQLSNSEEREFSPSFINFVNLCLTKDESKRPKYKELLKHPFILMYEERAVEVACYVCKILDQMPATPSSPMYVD
Procedure: as §1, §2, §3, §4
Inhibition potency against MKK4 is categorized as follows:
Assay at single concentration (100 nM):

Selectivity JNK1, IC50(off-target)/IC50(MKK4) (JNK1)	Selectivity IVIKK7, IC50(off-target)/IC50(MKK4) (MKK7)	IC50 (MKK4)	remaining activity at 0.1 µM (MKK4; single concentration 100 nM, read-out: Potency MKK4 (residual activity, assay at single concentration))	SMILES	Selectivity Braf, IC50(off-target)/IC50(MKK4) (BRaf)
+++ (IC50(off-target)/IC50(MKK4) > 100)	+++ (IC50(off-target)/IC50(MKK4) > 100)	< 100 nM	–	CCCS(=O)(=O)Nc1c(F)ccc(C(=O)c2c[nH]c3ncc(-c4ccc(C5CC5)nc4C)cc23)c1F [Example 170, N-(3-(5-(6-cyclopropyl-2-methylpyridin-3-yl)-1H-pyrrolo[2,3-b]pyridine-3-carbonyl)-2,6-difluorophenyl)propane-1-sulfonamide]	+++ (IC50(off-target)/IC50(MKK4) > 100)
+ (10 ≥ IC50(off-target)/IC50(MKK4) > 3)	+++ (IC50(off-target)/IC50(MKK4) > 100)	100 to 1000 nM	–	CCCS(=O)(=O)Nc1c(F)ccc(C(=O)c2c[nH]c3ncc(-c4ccccc4C)cc23)c1F [Example 215, N-(2,6-difluoro-3-(5-(o-tolyl)-1H-pyrrolo[2,3-b]pyridine-3-carbonyl)phenyl)propane-1-sulfonamide]	◯ (3 ≥ IC50(off-target)/IC50(MKK4))

Further lines, the compound ahead of its results:

SMILES	Selectivity JNK1, IC50(off-target)/IC50(MKK4) (JNK1)	Selectivity IVIKK7, IC50(off-target)/IC50(MKK4) (MKK7)	IC50 (MKK4)	remaining activity at 0.1 µM (MKK4; single concentration 100 nM, read-out: Potency MKK4 (residual activity, assay at single concentration))	Selectivity Braf, IC50(off-target)/IC50(MKK4) (BRaf)
CCCS(=O)(=O)Nc1ccc(F)c(C(=O)c2c[nH]c3ncc(-c4ccc5ccccc5c4)cc23)c1F [Example 99, N-(2,4-difluoro-3-(5-(naphthalen-2-yl)-1H-pyrrolo[2,3-b]pyridine-3-carbonyl)phenyl)propane-1-sulfonamide]	◯ (3 ≥ IC50(off-target)/IC50(MKK4))	+++ (IC50(off-target)/IC50(MKK4) > 100)	100 to 1000 nM	–	◯ (3 ≥ IC50(off-target)/IC50(MKK4))
CCCS(=O)(=O)Nc1c(F)ccc(C(=O)c2c[nH]c3ncc(-c4cccc(C#N)c4)cc23)c1F [Example 143, N-(3-(5-(3-cyanophenyl)-1-pyrrolo[2,3-b]pyridine-3-carbonyl)-2,6-difluorophenyl)propane-1-sulfonamide]	++ (100 ≥ IC50(off-target)/IC50(MKK4) > 10)	+++ (IC50(off-target)/IC50(MKK4) > 100)	< 100 nM	–	+++ (IC50(off-target)/IC50(MKK4) > 100)
CCCS(=O)(=O)Nc1c(F)ccc(C(=O)c2c[nH]c3ncc(-c4cnc(N5CCN(C)CC5)nc4)cc23)c1F [Example 194, N-(2,6-difluoro-3-(5-(2-(4-methylpiperazin-1-yl)pyrimidin-5-yl)-1H-pyrrolo[2,3-b]pyridine-3-carbonyl)phenyl)propane-1-sulfonamide]	++ (100 ≥ IC50(off-target)/IC50(MKK4) > 10)	+++ (IC50(off-target)/IC50(MKK4) > 100)	100 to 1000 nM	–	++ (100 ≥ IC50(off-target)/IC50(MKK4) > 10)
O=C(c1cccc(NS(=O)(=O)Cc2ccccc2)c1F)c1c[nH]c2ncc(-c3cccnc3)cc12 [Example 132, N-(2-fluoro-3-(5-(pyridin-3-yl)-1H-pyrrolo[2,3-b]pyridine-3-carbonyl)phenyl)-1-phenylmethanesulfonamide]	◯ (3 ≥ IC50(off-target)/IC50(MKK4))	+++ (IC50(off-target)/IC50(MKK4) > 100)	100 to 1000 nM	–	++ (100 ≥ IC50(off-target)/IC50(MKK4) > 10)
CCCS(=O)(=O)Nc1ccc(F)c(C(=O)c2c[nH]c3ncc(-c4ccc(S(N)(=O)=O)cc4)cc23)c1F [Example 96, 4-(3-(2,6-difluoro-3-(propylsulfonamido)benzoyl)-pyrrolo[2,3-b]pyridin-5-yl)benzenesulfonamide]	–	–	–	50 to 70%	–
CCCS(=O)(=O)Nc1ccc(F)c(C(=O)c2c[nH]c3ncc(-c4ccc(N)cc4)cc23)c1F [Example 121, N-(3-(5-(4-aminophenyl)-1H-pyrrolo[2,3-b]pyridine-3-carbonyl)-2,4-difluorophenyl)propane-1-sulfonamide]	–	–	100 to 1000 nM	–	–
